Holding throughout (format): in vivo, C57BL/6 mice
The subject of test [1] is high-fat-diet-induced obesity mouse model. Kind of test: Blood cholesterol and triglyceride levels in high-fat-diet-induced obesity mouse model. The conditions noted are these: 10 mg/kg orally once a day for 13 weeks, vs vehicle. As for the experimental part: (§1) 8-week-old C57BL/6 mice were fed with a 60% high-fat diet, and a vehicle or irosustat (10 mg/kg) prepared in Preparation Example 1 was administered orally to the mice once a day for a total of 10 days.
An experiment was performed under the same conditions as in Experimental Example 1 above, except that the blood cholesterol and triglyceride levels in the control group and the drug-administered group were measured after oral administration of irosustat for 13 weeks. The results of measurement of the cholesterol and triglyceride levels are shown in FIGS. 11 and 12, respectively.

Test [2] shares this test system. In words: Weight loss effect in high-fat-diet-induced obesity mouse model. The conditions noted are these: irosustat 10 mg/kg orally once a day, 60% high-fat diet. On the procedure:
as §1

Test [3] has the same test system. Kind of test: Insulin tolerance test (ITT) in high-fat-diet-induced obesity mouse model. The settings on record: 10 mg/kg orally for 12 weeks, 2 h fast, insulin 0.8 units/kg i.p., 0-120 min, vs vehicle. On the procedure:
as §1
An experiment was performed under the same conditions as in Experimental Example 1 above, except that the mice were fasted for 2 hours after oral administration of irosustat for 12 weeks, and then the blood glucose levels of the mice were measured and insulin was injected intraperitoneally into the mice at a dose of 0.8 units/kg body weight. 0 min, 15 min, 30 min, 60 min, 90 min and 120 min after intraperitoneal injection, blood was collected from the tail of each mice and the glucose level in the blood was measured.

For test [4] the test system is unchanged. In words: Fat mass and lean mass by DEXA in high-fat-diet-induced obesity mouse model. The conditions noted are these: 10 mg/kg orally once a day for 13 weeks, vs vehicle. On the procedure: as §1
An experiment was performed under the same conditions as in Experimental Example 1 above, except that the mice were imaged using DEXA (Dual-energy X-ray absorptiometry) after the vehicle or irosustat was administered orally to the mice for 13 weeks.

Test [5] has the same test system. Kind of test: Hepatic steatosis amelioration, liver tissue microscopy, high-fat-diet-induced obesity mouse model. The settings on record: 10 mg/kg orally once a day for 13 weeks, vs vehicle. As for the experimental part: as §1
An experiment was performed under the same conditions as in Experimental Example 1 above, except that the mice were euthanized after oral administration of irosustat for 13 weeks and hepatic tissue was taken and then imaged with a microscope.

For test [6] the test system is unchanged. In words: Adipocyte size in abdominal fat tissue, high-fat-diet-induced obesity mouse model. The conditions noted are these: 10 mg/kg orally once a day for 13 weeks, vs vehicle. As for the experimental part:
as §1
An experiment was performed under the same conditions as in Experimental Example 1 above, except that the mice were euthanized after oral administration of irosustat for 13 weeks and abdominal fat tissue was taken and then imaged with a microscope. In addition, the areas of adipocytes in the abdominal fat tissue in the control group and the drug-administered group were measured, and the results are shown in FIG. 5.

For test [7] the test system is unchanged. Kind of test: Glucose tolerance test (GTT) in high-fat-diet-induced obesity mouse model. The settings on record: 10 mg/kg orally for 11 weeks, 16 h fast, glucose 1 g/kg i.p., 0-120 min, vs vehicle. On the procedure: as §1
An experiment was performed under the same conditions as in Experimental Example 1 above, except that the mice were fasted for 16 hours after oral administration of irosustat for 11 weeks, and glucose was injected intraperitoneally into the mice at a dose of 1 g/kg body weight. 0 min, 15 min, 30 min, 60 min, 90 min and 120 min after intraperitoneal injection, blood was collected from the tail of each mice and the glucose level in the blood was measured. However, during the glucose tolerance test, a stable environment was provided to the experimental animals. In addition, AUC (area under the glucose-time curve) was measured using the following Equation 1 and the results are shown in FIG. 8. In Equation 1, C0, C15, C30, C60, C90 and C120 are glucose levels measured at 0 min, 15 min, 30 min, 60 min, 90 min and 120 min, respectively. AUC=0.5×(0.5×C0+C15+C30+C60+C90+0.5×C120) [Equation 1]

Consider `NS(=O)(=O)Oc1ccc2c3c(c(=O)oc2c1)CCCCC3` [irosustat, (6-oxo-8,9,10,11-tetrahydro-7H-cyclohepta[c]chromen-3-yl) sulfamate], for which, in test [1], the blood cholesterol level entry is “significantly decreased” and the blood triglyceride level result is “significantly decreased”. Moreover, the body weight in test [2] (C57BL/6 mice, vehicle control 36.4+/−3.4 g) came out at 31.4 ± 5.0 g. For the same compound, the “decrease of body weight compared to control group” value in test [2] (vs vehicle) is “about 14%”. Also, in test [3], the “blood glucose level in insulin tolerance test (time course and AUC)” value was “significantly decreased”. The fat mass entry in test [4] was “significantly decreased”. The “findings of hepatic steatosis caused by the high-fat diet” value in test [5] is listed as “significantly improved”. In test [6], the “size of adipocytes in abdominal fat tissue” value is given as “significantly decreased”. For the same compound, the “blood glucose level in glucose tolerance test (time course and AUC)” value in test [7] is recorded as “significantly decreased”.

Values taken from patent US11857533B2, “Composition for preventing or treating obesity or lipid-related metabolic disorders” (Nexyon Biotech Co., Ltd., priority 2019, dated 2024).
